Where two headings read alike, the source gives them in different places.
Tests used:
BSA [1] = target: T1, BSA (Bos taurus, UniProt P02769); details: for ΔHº / ΔSº: 288–308 K
Protocol: The association constants and number of binding sites between the zinc complexes and BSA were calculated according to Equation (4). (4) logF0−F/F=logKA+nlogQ
In general, ΔGº reflects the spontaneity of the reaction, whereas ΔHº and ΔSº are the main quantities for determining the binding force. The thermodynamic parameters of ΔHº and ΔSº were calculated using Equation (5), and the Gibbs free energy was estimated from Equation (6). lnKA = −ΔHº/RT + ΔSº/R(5) ΔGº = ΔHº − TΔSº = −RT ln KA(6)

BSA [2] = target: T1, BSA; details: T = 298 K
Description: The Förster resonance energy transfer (FRET) mechanism allows the excitation energy to be passed from the donor to the acceptor without photon emission from the former molecular system. According to the FRET principle, the rate of energy transfer depends on the distance between the donor and the acceptor, the orientation of the donor and the acceptor dipoles, and the degree of overlap between the donor emission spectrum and the acceptor absorption spectrum. Energy transfer efficiency (E) can be used to evaluate the distance (r) between zinc complexes (acceptor) and BSA (donor) in protein using Equation (8), (8) E=1−F/F0=R06/R06+r^6 where F and F0 are the fluorescence intensity of BSA in the presence and absence of the acceptor, respectively, r is the distance between the acceptor and donor, R0 is the critical distance for 50% energy transfer and can be calculated using Equation (9), (9) R06=8.8×10^−25K^2N^−4∅J where the spatial orientation factor of the dipole K^2 = 2/3, the refractive index of the medium (water) N = 1.333, and the fluorescence quantum yield of the donor BSA ∅ = 0.15 [10, 38]. The spectral overlap integral (J), calculated from the overlap of the acceptor UV absorption spectra with the donor fluorescence emission spectra, is given using Equation (10). (10) J=∫0∞Fλε λλ^4dλ/∫0∞Fλdλ

Enterococcus = test: MIC and MBC antibacterial test; format: cell-based; details: 30 °C; for MIC: 24 h
Protocol: (§1) All complexes were tested for antibacterial activity against both […] bacteria. The antibacterial function of complexes, represented as the diameter of the growth-inhibition region in millimeters, is shown in Figure 8. The minimum inhibitory concentration (MIC) and minimum bactericidal concentration (MBC) of complexes needed to inhibit bacterial growth are presented in Table 4. The MBC is identified by the determination of the lowest concentration of antibacterial agents that reduces the viability of the initial bacterial inoculum by a predetermined reduction of 99.9%. The value agreed on in two or more occasions was adopted as the MIC or MBC strain. Chloramphenicol was used for control purposes. From the inhibition zone, as well as the MIC and MBC data, one can conclude the following: Firstly, both complexes were active, but the activity was less than that for the normal drug (chloramphenicol).
(§2) The synthesized complexes were tested against both […] bacteria for antibacterial activity. The bacteria were incubated by shaking in the thermostat at 30 °C overnight. At this stage, a loop of each culture was placed in 10 mL of 10-fold diluted broth, and the test bacteria cultures containing 10^5 mL^−1 cells were used for antimicrobial testing. […] MIC and MBC as recommended by the NCCLS (National Committee for Clinical Laboratory Standards, Albany, NY, USA). After 24 h of incubation, the MIC was read at 30 °C equivalent to the concentration of the tube without visible growth to measure the effect of decreased antibiotic/antiseptic concentrations over a defined period of time on the inhibition of microbial population growth. These assessments may be quite useful during the R&D phase of the product to determine the appropriate concentrations required in the final product, since the concentration of the drug required to produce the effect is normally several hundreds to thousands of times lower than the concentration found in the completed dosage form.

Escherichia coli = test: MIC and MBC antibacterial test; format: cell-based; details: 30 °C
Protocol: as §1, §2

Pseudomonas aeruginosa = test: MIC and MBC antibacterial test; format: cell-based; details: 30 °C; for MIC: 24 h
Protocol: as §1, §2

Staphylococcus aureus = test: MIC and MBC antibacterial test; format: cell-based; details: 30 °C; for MIC: 24 h
Protocol: as §1, §2

[3] = Dynamic light scattering size distribution of self-assembled adducts in water; format: physicochemical; details: DLS, room temperature
BSA [4] = target: T1, BSA; test: Fluorescence quenching of BSA (Stern–Volmer); details: for KSV (called binding constants in conclusions) / Kq: temperature not stated
BSA [5] = target: T1, BSA; test: Cyclic voltammetry of BSA with zinc complexes; details: for BSA cathodic peak potential after addition of complex: BSA alone approximately −0.39 V, water, Ag/AgCl reference; for kR/kO binding constants: reduced over oxidized form
Protocol: Cyclic voltammograms of BSA in water in the presence and absence of zinc complexes were used for a voltammetric study.
The optical absorptions were performed using a 1.0 cm quartz cell on a JASCO spectrophotometer (V-780). Fluorescence measurements were carried out using the JASCO spectrofluorometer (FP-8300 model). The excitation wavelength was set at 280 nm, and the wavelength of the emission was set to 285–600 nm. Picosecond fluorescence decay profiles were measured using the FluoTime 300 (Pico Quant, Berlin, Germany) by the single-photon counting method. Lifetimes were evaluated using software supplied with the instrument. The time-resolved fluorescence instrumentation was the same as for steady-state experiments. Cyclic voltammograms were carried out on a Gamry setup with a carbon working electrode and a platinum wire as a counter electrode. A silver–silver chloride (Ag/AgCl) electrode was used as a reference electrode. All tests were carried out in oxygen-free solutions, and sodium sulfate was used as an electrolyte support. Dynamic light scattering (DLS) was used to determine the distribution profile of the particle size in the solution.

T1 sequence (P02769 25-607): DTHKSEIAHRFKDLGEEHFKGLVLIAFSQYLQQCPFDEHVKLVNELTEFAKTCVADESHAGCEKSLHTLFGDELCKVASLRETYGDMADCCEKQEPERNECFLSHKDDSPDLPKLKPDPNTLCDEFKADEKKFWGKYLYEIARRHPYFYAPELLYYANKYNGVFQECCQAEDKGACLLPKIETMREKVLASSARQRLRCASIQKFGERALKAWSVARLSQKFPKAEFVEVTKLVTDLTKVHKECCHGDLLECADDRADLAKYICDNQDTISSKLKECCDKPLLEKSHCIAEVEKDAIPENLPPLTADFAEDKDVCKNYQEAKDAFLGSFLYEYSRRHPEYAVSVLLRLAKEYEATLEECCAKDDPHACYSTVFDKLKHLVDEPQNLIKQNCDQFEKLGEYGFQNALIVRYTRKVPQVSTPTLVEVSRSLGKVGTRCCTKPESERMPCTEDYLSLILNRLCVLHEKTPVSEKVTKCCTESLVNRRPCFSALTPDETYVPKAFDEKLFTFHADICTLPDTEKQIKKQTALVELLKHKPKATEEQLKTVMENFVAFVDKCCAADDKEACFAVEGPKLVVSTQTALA

SMILES | ΔHº (BSA [1]) [kcal/mol] | ΔSº (BSA [1]) [J mol^−1 K^−1] | KA (association constant) (BSA [1]; T = 288 K) | n (number of binding sites) (BSA [1]; T = 288 K) | ΔGº (BSA [1]; T = 288 K) [kcal/mol] | KA (association constant) (BSA [1]; T = 298 K) | n (number of binding sites) (BSA [1]; T = 298 K) | ΔGº (BSA [1]; T = 298 K) [kcal/mol] | KA (association constant) (BSA [1]; T = 308 K) | n (number of binding sites) (BSA [1]; T = 308 K) | ΔGº (BSA [1]; T = 308 K) [kcal/mol] | n (number of binding sites) (BSA [1]; all temperatures) | J (spectral overlap integral) (BSA [2]) | R0 (critical distance for 50% energy transfer) (BSA [2]) [nm] | r (distance between acceptor and donor) (BSA [2]) [nm] | ∫F donor λ Δλ (BSA [2]) | MBC (Enterococcus) [µg/mL] | MIC (Enterococcus) [µg/mL] | MBC (Pseudomonas aeruginosa) [µg/mL] | MIC (Pseudomonas aeruginosa) [µg/mL] | also measured
CC(=Nc1cc(C(C)(C)C)cc(C(C)(C)C)c1[S-])c1cccc(C(C)=Nc2cc(C(C)(C)C)cc(C(C)(C)C)c2[S-])n1.[Zn+2] [DBZ, [Zn(py^tBuN2Me2S2)]] | 10 ± 2.39 | 261 ± 35 | 9.9 10^5 M^−1 | 1.12 | -7.93 ± 0.019 | 22.8 10^5 M^−1 | 1.32 | -8.56 ± 0.096 | 30.7 10^5 M^−1 | 1.45 | -9.18 ± 0.19 | ~1 | 9.0 10^−13 L mol^−1 cm^3 | 2.51 | 3.21 | 79.6 | 50.0 | 25.0 | 25.0 | 12.5 | MBC (Escherichia coli): 50.0 µg/mL; MIC (Escherichia coli; 24 h): 25.0 µg/mL; MBC (Staphylococcus aureus): 25.0 µg/mL; MIC (Staphylococcus aureus): 12.5 µg/mL; mean size of self-assembled adduct with BSA [3]: 110 nm; Kq (quenching rate constant) (BSA [4]; T = 288 K): 4.15 10^14 M^−1 s^−1; Ksv (Stern–Volmer quenching constant) (BSA [4]; T = 288 K): 19.0 10^5 M^−1; Kq (quenching rate constant) (BSA [4]; T = 298 K): 5.40 10^14 M^−1 s^−1; Ksv (Stern–Volmer quenching constant) (BSA [4]; T = 298 K): 24.7 10^5 M^−1; Kq (quenching rate constant) (BSA [4]; T = 318 K): 5.97 10^14 M^−1 s^−1; Ksv (Stern–Volmer quenching constant) (BSA [4]; T = 318 K): 27.3 10^5 M^−1; DBZ binds to BSA more than DBZH4 (BSA [4]; ratio of KSV, DBZ over DBZH4): ~30 fold; DBZ binds stronger than DBZH4 (BSA [4]; ratio of binding constants, conclusions): about 35 times; KSV (called binding constants in conclusions) (BSA [4]): 2.47e+06 M⁻¹; Kq (BSA [4]): 5.4e+14 M⁻¹ s⁻¹; BSA cathodic peak potential after addition of complex (BSA [5]): −0.55 V; kR/kO binding constants (BSA [5]): 0.43
CC(Nc1cc(C(C)(C)C)cc(C(C)(C)C)c1[S-])c1cccc(C(C)Nc2cc(C(C)(C)C)cc(C(C)(C)C)c2[S-])n1.[Zn+2] (centres unmarked) [DBZH4, [Zn(py^tBuN2H4Me2S2)]] | 15.5 ± 0.48 | 304 ± 6 | 0.13 10^5 M^−1 | 1.22 | -5.4 ± 0.072 | 0.31 10^5 M^−1 | 1.40 | -6.12 ± 0.048 | 0.76 10^5 M^−1 | 1.42 | -6.84 ± 0.048 | ~1 | 5.4 10^−13 L mol^−1 cm^3 | 2.31 | 3.67 | 90.0 | 60.0 | 30.0 | 30.0 | 15.0 | MBC (Staphylococcus aureus): 30.0 µg/mL; MIC (Staphylococcus aureus): 15.0 µg/mL; mean size of self-assembled adduct with BSA [3]: 339 nm; size range of self-assembled adduct with BSA [3]: 100–1000 nm; Kq (quenching rate constant) (BSA [4]; T = 288 K): 0.150 10^14 M^−1 s^−1; Ksv (Stern–Volmer quenching constant) (BSA [4]; T = 288 K): 0.69 10^5 M^−1; Kq (quenching rate constant) (BSA [4]; T = 298 K): 0.153 10^14 M^−1 s^−1; Ksv (Stern–Volmer quenching constant) (BSA [4]; T = 298 K): 0.70 10^5 M^−1; Kq (quenching rate constant) (BSA [4]; T = 318 K): 0.155 10^14 M^−1 s^−1; Ksv (Stern–Volmer quenching constant) (BSA [4]; T = 318 K): 0.71 10^5 M^−1; KSV (called binding constants in conclusions) (BSA [4]): 70000 M⁻¹; Kq (BSA [4]): 1.5e+13 M⁻¹ s⁻¹; BSA cathodic peak potential after addition of complex (BSA [5]): −0.57 V; kR/kO binding constants (BSA [5]): 0.48

Source: PMC9182146, “BSA Interaction, Molecular Docking, and Antibacterial Activity of Zinc(II) Complexes Containing the Sterically Demanding Biomimetic N3S2 Ligand: The Effect of Structure Flexibility” (Molecules, 2022)
